In ChEMBL document CHEMBL1909540, “Synthesis and antimycobacterial evaluation of 3a,4-dihydro-3H-indeno [1,2-c] pyrazole-2-carboxamide analogues” (Eur J Med Chem, 2011):
≈ marks a conversion by molar mass, not a printed value.

Columns and labels:
[1] = tested on: Mycobacterium tuberculosis; experiment: Antitubercular activity against Mycobacterium tuberculosis H37Rv by two fold serial dilution method; assay type: functional
Vero = experiment: Cytotoxicity against african green monkey Vero cells after 72 hrs by MTT assay; assay type: cell-based; settings: Chlorocebus sabaeus
[2] = Safety index, ratio of IC50 for african green monkey Vero cells to MIC for Mycobacterium tuberculosis H37Rv; assay type: toxicity, cell-based

For `COc1cc2c(cc1OC)C1=NN(C(=O)Nc3ccc([N+](=O)[O-])cc3)C(c3ccncc3)C1C2` (stereo not drawn), the MIC [1] was 6.8 µM (≈ 3.12 µg/mL) and the IC50 (Vero) was 68 µM.

Work on `COc1cc2c(cc1OC)C1=NN(C(=O)Nc3ccc(Cl)cc3)C(c3ccncc3)C1C2` (stereo not drawn) yielded an MIC [1] of 6.96 µM (≈ 3.12 µg/mL) and an IC50 (Vero) greater than 139 µM.

Compound `COc1cc2c(cc1OC)C1=NN(C(=O)Nc3ccc(Cl)cc3)C(c3ccccc3Cl)C1C2` (stereo not drawn) has an MIC [1] of 13.9 µM (≈ 6.71 µg/mL).

`COc1cc2c(cc1OC)C1=NN(C(=O)Nc3ccc(Cl)cc3)C(c3ccc(F)cc3)C1C2` (stereo not drawn) showed an MIC [1] of 0.83 µM (≈ 0.387 µg/mL), an IC50 (Vero) greater than 134 µM and a selectivity ratio [2] greater than 161.

`COc1ccc(C2C3Cc4cc(OC)c(OC)cc4C3=NN2C(=O)Nc2ccc(Cl)cc2)cc1OC` (stereo not drawn) showed an MIC [1] of 9.8 µM (≈ 4.98 µg/mL).

`COc1cc2c(cc1OC)C1=NN(C(=O)Nc3ccc(Cl)cc3)C(c3ccccc3)C1C2` (stereo not drawn) gave an MIC [1] of 6.97 µM (≈ 3.12 µg/mL) and an IC50 (Vero) greater than 139 µM.

For `COc1ccc(C2C3Cc4cc(OC)c(OC)cc4C3=NN2C(=O)Nc2ccc(Cl)cc2)cc1` (stereo not drawn), the MIC [1] was 10.5 µM (≈ 5 µg/mL).

With `COc1cc2c(cc1OC)C1=NN(C(=O)Nc3ccc([N+](=O)[O-])cc3)C(c3ccccc3Cl)C1C2` (stereo not drawn) the MIC [1] was 12.7 µM (≈ 6.25 µg/mL).

In the case of `COc1cc2c(cc1OC)C1=NN(C(=O)Nc3ccc([N+](=O)[O-])cc3)C(c3ccc(F)cc3)C1C2` (stereo not drawn), the MIC [1] is reported as 3.16 µM (≈ 1.51 µg/mL) and the IC50 (Vero) is reported as 94.8 µM.

`COc1ccc(C2C3Cc4cc(OC)c(OC)cc4C3=NN2C(=O)Nc2ccc([N+](=O)[O-])cc2)cc1OC` (stereo not drawn) showed an MIC [1] of 12.1 µM (≈ 6.25 µg/mL).

In the case of `COc1cc2c(cc1OC)C1=NN(C(=O)Nc3ccc([N+](=O)[O-])cc3)C(c3ccccc3)C1C2` (stereo not drawn), the MIC [1] is reported as 6.81 µM (≈ 3.12 µg/mL) and the IC50 (Vero) is reported as 51.1 µM.

For `COc1ccc(C2C3Cc4cc(OC)c(OC)cc4C3=NN2C(=O)Nc2ccc([N+](=O)[O-])cc2)cc1` (stereo not drawn), the MIC [1] was 12.8 µM (≈ 6.24 µg/mL).

With `COc1cc2c(cc1OC)C1=NN(C(N)=O)C(c3ccncc3)C1C2` (stereo not drawn) the MIC [1] was 11.8 µM (≈ 3.99 µg/mL).

Work on `COc1cc2c(cc1OC)C1=NN(C(N)=O)C(c3ccccc3Cl)C1C2` (stereo not drawn) yielded an MIC [1] of 10.8 µM (≈ 4 µg/mL).

For `COc1cc2c(cc1OC)C1=NN(C(N)=O)C(c3ccc(F)cc3)C1C2` (stereo not drawn), the MIC [1] was 8.44 µM (≈ 3 µg/mL) and the IC50 (Vero) was 177 µM.

`COc1ccc(C2C3Cc4cc(OC)c(OC)cc4C3=NN2C(N)=O)cc1OC` (stereo not drawn) gave an MIC [1] of 10.1 µM (≈ 3.99 µg/mL).

`COc1cc2c(cc1OC)C1=NN(C(N)=O)C(c3ccccc3)C1C2` (stereo not drawn) gave an MIC [1] of 11.8 µM (≈ 3.99 µg/mL).

In the case of `COc1ccc(C2C3Cc4cc(OC)c(OC)cc4C3=NN2C(N)=O)cc1` (stereo not drawn), the MIC [1] is reported as 10.9 µM (≈ 3.99 µg/mL).

For `NNC(=O)c1ccncc1` [ISONIAZID], the MIC [1] was 0.56 µM (≈ 0.0768 µg/mL) and the IC50 (Vero) was greater than 456 µM.
